In data set [1] the test system is femoral artery injured by angioplasty overstretch. Kind of data set: Histopathology in porcine model of femoral artery injury. The class given is in vivo, Yorkshire pigs.
For data set [2], the system named is cell proliferation in the vessel wall and adventitia. Kind of data set: Ki-67 staining of cellular proliferation in injured femoral vessels. Particulars: day 3, 7 and 28; 1.5 ml of 238 μg/ml perivascular injection. The data set is classed as in vivo, Yorkshire pigs.
A short description of data set [3]: Pharmacokinetics: whole blood concentrations after adventitial injection. The data set is classed as in vivo, Yorkshire pigs. Here is the method:
Temsirolimus Preparation. The 25 mg/ml of Torisel® (temsirolimus) was diluted to 10 mg/ml with the supplied diluent and further diluted to 476 μg/ml in 0.9% sodium chloride solution. Then, the 476 μg/ml temsirolimus was mixed at 1:1 ratio with a contrast medium, Isovue-370, for a final temsirolimus concentration of 238 μg/ml. This temsirolimus preparation was subsequently administered in temsirolimus-treated group pigs. Similarly, a control solution was prepared by mixing 0.9% sodium chloride solution at 1:1 ratio with a contrast medium, Isovue-370. This control solution was administered in control group pigs.
Temsirolimus-Treated Group.
Pharmacokinetics. Whole blood samples were taken following each injection at 5 minutes, 20 minutes, 1 hour, and then 24 hours and upon sacrifice. Whole blood samples were analyzed for circulating temsirolimus and sirolimus concentrations. FIG. 14A and FIG. 14B show the levels of temsirolimus and sirolimus, respectively, circulating in whole blood at 1 hour, and 3, 7, and 28 days post-procedure. The mean temsirolimus level in whole blood was highest at 1 hour after the first injection (32.1±11.0 ng/mL) and decreased by an order of magnitude within 24 hours (2.4±1.0 ng/mL).

Data set [4] is described as follows: Pharmacokinetics: concentrations in harvested vessel tissues. Particulars: post-dosing. The class given is in vivo, Yorkshire pigs.
For data set [5] the following is noted: clinical observations, clinical pathology, post mortem tissue analysis; adventitial injection with Bullfrog device.
[6] abbreviates: 1.5 ml of 238 μg/ml perivascular injection, injured femoral artery.

Entries after “also recorded” stand apart in the source; their conditions may differ.

Consider `CO[C@H]1C[C@@H]2CC[C@@H](C)[C@@](O)(O2)C(=O)C(=O)N2CCCC[C@H]2C(=O)O[C@H]([C@H](C)C[C@@H]2CC[C@@H](OC(=O)C(C)(CO)CO)[C@H](OC)C2)CC(=O)[C@H](C)/C=C(\C)[C@@H](O)[C@@H](OC)C(=O)[C@H](C)C[C@H](C)/C=C/C=C/C=C/1C` [temsirolimus], for which the neointima formation entry in data set [1] (setting [6]) is “no or minimal to mild and non-stenosing neointima formation”. In addition, the re-endothelialization entry in data set [1] (setting [6]) is given as “complete or near complete re-endothelialization”. Moreover, the “healing of treated vessels (histopathology)” value in data set [1] (1.5 ml of 238 μg/ml temsirolimus into adventitia/perivascular tissue of each injured femoral artery) is on record as “fully or nearly fully healed as early as day 7”. In data set [2], the “cell proliferation throughout the vessel wall (Ki-67) compared to controls” value was “moderate to marked decrease; also recorded: reduced cellular proliferation”. In addition, the “temsirolimus concentration in whole blood” value in data set [3] (7 days post-procedure) is on record as “below the limit of quantitation”; in data set [3] (28 days post-procedure), “below the limit of quantitation”; in data set [3] (between 24 hours and 3 days), “continued to decrease”. Besides, the concentration at 1 h in data set [3] (Yorkshire, pig, whole blood, 357 µg per artery (1.5 ml of 238 µg/ml), 1 hour after the first injection, read-out: mean temsirolimus level in whole blood) worked out at 32.1 ± 11 ng/mL. Moreover, the concentration at 24 h in data set [3] (Yorkshire, pig, whole blood, 357 µg per artery (1.5 ml of 238 µg/ml), 24 hours, read-out: mean temsirolimus level in whole blood) came out at 2.4 ± 1 ng/mL. Besides, the “time temsirolimus was measured in local vascular tissue” value in data set [4] is listed as “up to 28 days”. Further, the “local or systemic toxicity” value in data set [5] is listed as “no evidence of local or systemic toxicity”.

The values above are taken from patent US10617678B2, “Treatment of restenosis using temsirolimus” (MERCATOR MEDSYSTEMS, INC., priority 2016, dated 2020).
